Source: patent US7101890B2, “Benzazepine derivatives, drugs containing these and use of the same for producing drugs” (priority 1996, dated 2006)

Molecular target: acetylcholine esterase (Homo sapiens, UniProt P06276)
Test: Inhibition of acetylcholine esterase, modified method of Ellmann, human serum
Assay type: biochemical
Settings: ACHE inhibition; human serum from a pool of 10 test subjects; 37° C., pH 7.8; compounds of general formula (I)
Protocol: The values were given as a percentage of the comparison sample and the inhibiting concentration (IC^50) was calculated from the course of the curve.

acetylcholine esterase, sequence (P06276 29-602): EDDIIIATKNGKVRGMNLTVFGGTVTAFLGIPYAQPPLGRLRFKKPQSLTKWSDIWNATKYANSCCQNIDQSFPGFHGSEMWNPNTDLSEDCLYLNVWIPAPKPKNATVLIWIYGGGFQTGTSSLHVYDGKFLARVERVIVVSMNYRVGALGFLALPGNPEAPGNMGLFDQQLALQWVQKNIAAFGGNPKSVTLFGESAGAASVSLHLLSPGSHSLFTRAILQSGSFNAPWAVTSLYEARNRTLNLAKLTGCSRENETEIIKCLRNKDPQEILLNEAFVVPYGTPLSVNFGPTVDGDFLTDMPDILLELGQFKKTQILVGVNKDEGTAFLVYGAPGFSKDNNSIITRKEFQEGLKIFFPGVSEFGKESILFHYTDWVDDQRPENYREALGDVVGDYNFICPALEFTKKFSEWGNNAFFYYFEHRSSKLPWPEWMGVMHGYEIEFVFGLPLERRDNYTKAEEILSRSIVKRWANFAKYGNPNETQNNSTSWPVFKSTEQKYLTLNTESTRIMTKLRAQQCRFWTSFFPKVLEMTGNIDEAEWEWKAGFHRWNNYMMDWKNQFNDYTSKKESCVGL

**Q.** Which “IC50 in μMol” value does the source give for `COc1ccc2c3c1OC1CC(O)C=CC31CC[N+](C)([O-])C2` (single isomer, unassigned; (-)) [Substance 98, (−)-Galanthamine-N-oxide] here?
**A.** insol.

**Q.** Which “IC50 in μMol” value does the source give for `C#CCN1CCC23C=CC(O)CC2Oc2c(OC)cc(Br)c(c23)C1` (racemic) [Substance 50] here?
**A.** insol.

**Q.** Which “IC50 in μMol” value does the source give for `COc1ccc2c3c1OC1CC(=NNC(N)=O)C=CC31CCN(C)C2` (racemic) [Substance 87] here?
**A.** insol.

**Q.** Which “IC50 in μMol” value does the source give for `COc1ccc2c3c1OC1CC(=NN(C)C)C=CC31CCN(C)C2` (racemic) [Substance 82] here?
**A.** insol.

**Q.** For `COc1ccc2c3c1O[C@H]1CC(=NO)C=C[C@@]31CCN(C)C2` [Substance 76, narwedine Oxime], which “IC50 in μMol” value is on record?
**A.** insol.

**Q.** For `CCCCCCN1CCC23C=CC(O)CC2Oc2c(OC)cc(Br)c(c23)C1` (racemic) [Substance 49], which “IC50 in μMol” value is on record?
**A.** insol.

**Q.** Which “IC50 in μMol” value does the source give for `COC(=O)N1CCC23C=CC(O)CC2Oc2c(OC)cc(Br)c(c23)C1` (racemic) [Substance 62] here?
**A.** insol.

**Q.** With `COc1ccc2c3c1OC1CC(=NO)C=CC31CCN(C)C2` (single isomer, unassigned) [Substance 77, narwedine Oxime] as the compound, how does the “IC50 in μMol” value read?
**A.** insol.

**Q.** For `COc1cc(Br)c2c3c1OC1CC(O)C=CC31CCN(CC#N)C2` (racemic) [Substance 52], which “IC50 in μMol” value is on record?
**A.** insol.

**Q.** With `COC(=O)CCC(=O)N1CCC23C=CC(O)CC2Oc2c(OC)cc(Br)c(c23)C1` (racemic) [Substance 61] as the compound, how does the “IC50 in μMol” value read?
**A.** insol.

Same assay, conditions: ACHE inhibition; human serum from a pool of 10 test subjects; 37° C., pH 7.8; compounds of general formula (I); read-out: IC50 in μMol

**Q.** With `CCCCNC(=S)OC1C=CC23CCN(C)Cc4ccc(OC)c(c42)OC3C1` (single isomer, unassigned; (+)) [Substance 24, (+)-Galanthamin-n-butylthiocarbamate] as the compound, how does the IC50 read?
**A.** 85 µM

Same assay, conditions: ACHE inhibition; human serum pool; compounds of formula (II); read-out: IC50

**Q.** Which IC50 does the source give for `COc1ccc2c(c1O)C13C=C[C@@H](O)CC1N(CC3)C2` (stereo partly shown) [Substance 115, 35-4,4a-dihydro-9-methoxy-10-hydroxy (3H,6H) (5,10b) ethanophenanthridine-3-ol] here?
**A.** > 150 µM

Test system: not given
Test: not given
Settings: not given

**Q.** For `O=[N+]([O-])c1ccccc1N1CC2CC1CN2Cc1ccccc1` (stereo not shown), which melting point is on record?
**A.** 107 to 108 °C

**Q.** For `c1ccc(N2CC3CC2CN3)cc1` (stereo not shown), which melting point is on record?
**A.** 120 to 130 °C

**Q.** For `COc1cc(Br)c2c3c1OC1C[C@@H](O)C=CC31CCN(C)C2=O` (mixture of isomers), which melting point is on record?
**A.** 188 to 189 °C

**Q.** With `O=[N+]([O-])c1ccc(N2CC3CC2CN3Cc2ccccc2)cc1` (stereo not shown) as the compound, how does the melting point read?
**A.** 170 to 173 °C

**Q.** Which melting point does the source give for `Cc1ccc(N2CC3CC2CN3)cc1` (stereo not shown) here?
**A.** 130 to 140 °C

**Q.** Which melting point does the source give for `Fc1ccc(N2CC3CC2CN3)cc1` (stereo not shown) here?
**A.** 120 to 130 °C

**Q.** With `Clc1ccc(N2CC3CC2CN3)cc1` (stereo not shown) as the compound, how does the melting point read?
**A.** 120 to 130 °C
